The test system of one assay is S. pneumoniae. Nature of the assay: Kill or inhibit growth/proliferation; morphology, biofilm and growth disruption (Tables 5, 6). Also: test concentration or dose not given here. Further details: key: A: Peptide aggregates; B: Less hyphal formation; Clumps; Diffuse clumps and small polyps; F: Diffuse growth; H: Thin; I: Growth inhibition; Microcolony formation; Rippled; Small polyps; Thick; W: Halo formation on top, microlonies on bottom. The format is cell-based, Streptococcus pneumoniae.

Assay [1] has as its system microorganisms (e.g., bacteria, yeasts, fungi). The assay can be described thus: Targeting peptide binding to target microorganisms (Table 3). As to conditions: preferably 1x PBS; for Target(s): microorganism(s) the targeting peptide binds, peptide binding conducted in aqueous buffers varied by peptide solubility; for Target(s) (microorganisms bound by the targeting peptide): peptide binding in aqueous buffers varied by peptide solubility.

Another assay concerns microorganisms. The assay can be described thus: Peptides having multiple activities (targeting/binding, antimicrobial, growth or phenotype altering). Further details: key: B: targeting/binding activity;; M: antimicrobial activity;; G: Growth or phenotype altering. An excerpt: In certain embodiments, peptides described herein can have multiple activities. Thus for example, a peptide can have both binding/targeting activity and antimicrobial activity. Such peptides can be used, e.g., in a chimeric construct, for any or all of these properties. Thus, for example, a peptide designated “B” in Table 8 can be used as a targeting peptide. If it is also designated G or M it can also be used for antimicrobial activity.

“Also recorded” adds a separate entry of the source.

For “PF-462: peptide having multiple activities (chain 1 KNKTDTL; chain 2 KNKTDTL; Peptide with targeting and/or antimicrobial activity)”, the “Organism, effect” value in the assay on S. pneumoniae was “S. pneumoniae (H)”. In assay [1], the “Target(s)” value is listed as “E. faecalis; also recorded: C. jeikeium”. In the assay on microorganisms, the Activities entry is “G B”.
On to HKNKLNIPHIKS [PF-477], for which the “Organism, effect” value in the assay with S. pneumoniae is on record as “S. pneumoniae (H)”. For the same substance, in assay [1], the “Target(s)” value is on record as “S. epidermidis; also recorded: M. luteus; also recorded: C. albicans; also recorded: S. pneumoniae; also recorded: C. jeikeium; also recorded: C. jejuni”. Besides, the Activities result in the assay with microorganisms is listed as “G B”.
For the substance LHVIRPRPELSELKFPITKILKVNKQGLKK [PF-752], in the assay on S. pneumoniae, the “Organism, effect (morphology, biofilm and growth disruption)” value is reported as “S. pneumoniae (C)”. The “Target(s) (microorganisms bound by the targeting peptide)” value in assay [1] was “S. epidermidis and E. coli and MRSA and S. pneumoniae and E. faecalis”. For the same substance, the Activities result in the assay on microorganisms is “G B”.
“PF-464: peptide having multiple activities (chain 1 VDMVNRFLGN; chain 2 VDMVNRFLGN; Peptide with targeting and/or antimicrobial activity)”: the “Organism, effect” value in the assay on S. pneumoniae is recorded as “S. pneumoniae (S)”. Further, the “Target(s)” value in assay [1] was “S. epidermidis and C. albicans and MRSA and S. pneumoniae and E. faecalis and C. jeikeium and C. jejuni”. Besides, in the assay on microorganisms, the Activities entry is on record as “G B”.
Take “PF-459: peptide having multiple activities (chain 1 EKRMSFNENQSHRPLL; chain 2 EKRMSFNENQSHRPLL; Peptide with targeting and/or antimicrobial activity)”: the “Organism, effect” value in the assay on S. pneumoniae is “S. pneumoniae (H)”. Also, the “Target(s)” value in assay [1] was “P. aeruginosa”. Moreover, the Activities result with microorganisms is reported as “G B”.
With “PF-762: peptide having multiple activities (PAPAPSAPAPAPEQPEQPA; Peptide with targeting and/or antimicrobial activity)”, the “Organism, effect (morphology, biofilm and growth disruption)” value in the assay with S. pneumoniae is “S. pneumoniae (H)”. Moreover, the “Target(s) (microorganisms bound by the targeting peptide)” value in assay [1] is on record as “M. luteus; also recorded: C. albicans”. In the assay on microorganisms, the Activities entry is on record as “G B”.
With “PF-625: peptide having multiple activities (SDSTNNARTRKKARDVTTKDIDK; Peptide with targeting and/or antimicrobial activity)”, the “Organism, effect” value in the assay on S. pneumoniae was “S. pneumoniae (H)”. The “Target(s) (microorganisms bound by the targeting peptide)” value in assay [1] is “S. epidermidis; also recorded: M. luteus; also recorded: S. pneumoniae; also recorded: C. jeikeium”. Further, the Activities result in the assay on microorganisms is recorded as “G B”.
Take “PF-414: peptide having multiple activities (LLNKKLE; Peptide with targeting and/or antimicrobial activity)”: in the assay with S. pneumoniae, the “Organism, effect” value is recorded as “S. pneumoniae (H)”. Besides, the “Target(s)” value in assay [1] is listed as “E. coli; also recorded: C. albicans; also recorded: C. jeikeium”. Besides, in the assay with microorganisms, the Activities result is given as “G B”.
As for “PF-757: peptide having multiple activities (PQAISSVQQNA; Peptide with targeting and/or antimicrobial activity)”, in the assay on S. pneumoniae, the “Organism, effect (morphology, biofilm and growth disruption)” value is listed as “S. pneumoniae (H)”. In addition, in assay [1], the “Target(s) (microorganisms bound by the targeting peptide)” value is “M. luteus and C. albicans and MRSA”. For the same substance, the Activities entry in the assay with microorganisms was “G B”.
Consider “PF-416: peptide having multiple activities (SKAGLYGKIERSDKRE; Peptide with targeting and/or antimicrobial activity)”, for which, in the assay with S. pneumoniae, the “Organism, effect” value is “S. pneumoniae (H)”. Also, in assay [1], the “Target(s)” value is reported as “S. pneumoniae; also recorded: C. jeikeium”. The Activities result in the assay on microorganisms is reported as “G B”.
“PF-744: peptide having multiple activities (LGVGTFVGKVLIKNQQKQKSKKKAQ; Peptide with targeting and/or antimicrobial activity)”: the “Organism, effect (morphology, biofilm and growth disruption)” value with S. pneumoniae is “S. pneumoniae (H)”. For the same substance, the “Target(s) (microorganisms bound by the targeting peptide)” value in assay [1] is “S. epidermidis and M. luteus and E. coli and MRSA and S. pneumoniae and E. faecalis and C. jeikeium”. Further, the Activities entry in the assay on microorganisms is reported as “G B”.
For the substance “PF-573: peptide having multiple activities (chain 1 EKKLIVKLIDSIGKSHEEIVGAG; chain 2 EKKLIVKLIDSIGKSHEEIVGAG; Peptide with targeting and/or antimicrobial activity)”, in the assay on S. pneumoniae, the “Organism, effect” value is on record as “S. pneumoniae (C)”. The “Target(s)” value in assay [1] was “S. epidermidis; also recorded: S. pneumoniae”. In addition, in the assay with microorganisms, the Activities entry is reported as “G B”.
The matching figures for “PF-445: peptide having multiple activities (chain 1 ASMTKRLKLAMSKV; chain 2 ASMTKRLKLAMSKV; Peptide with targeting and/or antimicrobial activity)”: “S. pneumoniae (M)”, “M. luteus; also recorded: S. pneumoniae; also recorded: C. jeikeium” and “G B”.
The like results for “PF-457: peptide having multiple activities (chain 1 INKYHHIA; chain 2 INKYHHIA; Peptide with targeting and/or antimicrobial activity)” were, in that order, “S. pneumoniae (M)”, “C. albicans; also recorded: S. pneumoniae; also recorded: E. faecalis; also recorded: C. jeikeium” and “G B”.
The matching figures for “PF-423: peptide having multiple activities (AGKKERLLSFREQFLNKNKKK; Peptide with targeting and/or antimicrobial activity)”: “S. pneumoniae (H)”, “S. epidermidis; also recorded: M. luteus; also recorded: E. coli; also recorded: S. pneumoniae; also recorded: E. faecalis; also recorded: C. jeikeium” and “G B”.
In the case of “PF-479: peptide having multiple activities (chain 1 AYILKRREEKNK; chain 2 AYILKRREEKNK; Peptide with targeting and/or antimicrobial activity)”, the “Organism, effect” value in the assay on S. pneumoniae is recorded as “S. pneumoniae (C)”. For the same substance, the Activities entry with microorganisms is reported as “G B”.
Turning to “PF-482: peptide having multiple activities (chain 1 LVGYVRTSGTVRSYKIN; chain 2 LVGYVRTSGTVRSYKIN; Peptide with targeting and/or antimicrobial activity)”, the “Organism, effect” value in the assay with S. pneumoniae was “S. pneumoniae (S)”. Moreover, the Activities result in the assay on microorganisms was “G B”.
For “PF-665 (chain 1 VLRVATAVGEVPTGL; chain 2 VLRVATAVGEVPTGL; Peptide with targeting and/or antimicrobial activity)”, in the assay on S. pneumoniae, the “Organism, effect (morphology, biofilm and growth disruption)” value is “S. pneumoniae (H)”. Further, the “Target(s) (microorganisms bound by the targeting peptide)” value in assay [1] is recorded as “Mycobacteria spp”.
For “PF-699 (chain 1 GRAGVKCRRPTGR; chain 2 GRAGVKCRRPTGR; Peptide with targeting and/or antimicrobial activity)”, the “Organism, effect (morphology, biofilm and growth disruption)” value in the assay on S. pneumoniae is “S. pneumoniae (A)”. Besides, the “Target(s) (microorganisms bound by the targeting peptide)” value in assay [1] is given as “Mycobacteria spp”.
Turning to “PF-537: peptide having multiple activities (chain 1 LANDYYKKTKKSW; chain 2 LANDYYKKTKKSW; Peptide with targeting and/or antimicrobial activity)”, the “Organism, effect” value in the assay on S. pneumoniae was “S. pneumoniae (C)”. The Activities entry in the assay with microorganisms is given as “G B”.
As to “PF-660 (chain 1 TDPQATAAPRRRTSPR; chain 2 TDPQATAAPRRRTSPR; Peptide with targeting and/or antimicrobial activity)”, the “Organism, effect (morphology, biofilm and growth disruption)” value in the assay with S. pneumoniae is “S. pneumoniae (H)”. Moreover, the “Target(s) (microorganisms bound by the targeting peptide)” value in assay [1] was “Mycobacteria spp”.
As for “PF-688 (chain 1 ARNHAVIPAG; chain 2 ARNHAVIPAG; Peptide with targeting and/or antimicrobial activity)”, in the assay with S. pneumoniae, the “Organism, effect (morphology, biofilm and growth disruption)” value is given as “S. pneumoniae (A)”. In addition, in assay [1], the “Target(s) (microorganisms bound by the targeting peptide)” value is recorded as “Mycobacteria spp”.
In the case of “PF-516: peptide having multiple activities (ASKQASKQASKQASKQ; Peptide with targeting and/or antimicrobial activity)”, in the assay on S. pneumoniae, the “Organism, effect” value is recorded as “S. pneumoniae (H)”. Also, in the assay with microorganisms, the Activities result is on record as “G”.
Turning to “PF-702 (chain 1 LSGRLAGRR; chain 2 LSGRLAGRR; Peptide with targeting and/or antimicrobial activity)”, the “Organism, effect (morphology, biofilm and growth disruption)” value with S. pneumoniae was “S. pneumoniae (H)”. The “Target(s) (microorganisms bound by the targeting peptide)” value in assay [1] is “Mycobacteria spp”.
On to “PF-465: peptide having multiple activities (chain 1 KPVGKALEEIADGKIEPVVPKEYLG; chain 2 KPVGKALEEIADGKIEPVVPKEYLG; Peptide with targeting and/or antimicrobial activity)”, for which the “Organism, effect” value in the assay with S. pneumoniae is given as “S. pneumoniae (H)”. In addition, the Activities result with microorganisms is reported as “G B”.
“PF-682 (chain 1 RRGKSEQGLSRR; chain 2 RRGKSEQGLSRR; Peptide with targeting and/or antimicrobial activity)”: in the assay with S. pneumoniae, the “Organism, effect (morphology, biofilm and growth disruption)” value is “S. pneumoniae (A)”. Besides, the “Target(s) (microorganisms bound by the targeting peptide)” value in assay [1] is “Mycobacteria spp”.
As for “PF-662 (chain 1 GKQSRAHGPVASRREFRRKSG; chain 2 GKQSRAHGPVASRREFRRKSG; Peptide with targeting and/or antimicrobial activity)”, the “Organism, effect (morphology, biofilm and growth disruption)” value with S. pneumoniae is “S. pneumoniae (A)”. Further, the “Target(s) (microorganisms bound by the targeting peptide)” value in assay [1] is reported as “Mycobacteria spp”.

For the origin of these results see patent US20110039762A1, “TARGETED ANTIMICROBIAL MOIETIES” (C3 JIAN, INC., priority 2009, published 2011).
